Results: patent US10968214B2, “KRas G12C inhibitors” (Eli Lilly and Company, priority 2018, dated 2021)
Like-named read-outs stand apart in the source and are kept apart here.

Tests used:
H2030 = test: CellTiterGlo Cell Proliferation Assay, H2030; format: cell-based; conditions: Homo sapiens, NCI-H2030, KRas G12C, Lung, 96 hr
Protocol: (§1) A panel of tumor cell lines harboring KRas G12C or other KRas mutations are collected (Table 6). All cell lines are from ATCC or other sources indicated.
(§2) Typically cells are cultured in RPMI1640 or Dulbecco's modified Eagle's medium (DMEM, GIBCO) supplemented with 10% FBS (GIBCO, Invitrogen). For 2D culture cells (4×10^3/well) maintained in growth medium described above, are plated onto 96 well tissue culture plates Corning® Cat. 3603) a day before the treatment. For 3D culture 8000 cells/well are seeded onto 96 well ultra-low attachment tissue culture plates (Corning, #3474). The cells are treated compound for 96 hr, and then are analyzed for viability using the CellTiterGlo® Luminescent Cell Viability Assay® (Promega #G7572 for 2D and Promega #G9683 for 3D cultures) according to manufacturer's instructions and an EnVision™ plate reader. Nonlinear regression and sigmoidal dose-response curves are used to calculate the half maximal inhibitory concentration (IC50) with GraphPad Prism 4® software.

SW1463 = test: CellTiterGlo Cell Proliferation Assay, SW1463; format: cell-based; conditions: Homo sapiens, KRas G12C, colon, 96 hr, read-out: IC50 (μM) in 2 D cell proliferation
Protocol: as §1, §2

[1] = molecular target: T1, active KRas in H358 xenograft tumors (Homo sapiens, UniProt P01116, G12C); test: In vivo target inhibition/PD, H358 xenograft, active KRas; parameters: species or system mouse; conditions: for inhibition at 10 mg/kg: 10 mg/kg single dose; for inhibition at 30 mg/kg: 30 mg/kg single dose
T1 construct: from tissue; host or cells: H358 xenograft tumours from nude mice
Protocol: To evaluate in vivo target inhibition and anti-tumor efficacy of a compound, Human lung cancer cells, H358 or H2122 are implanted into nude mice xenograft tumor models. Either H358 or H2122 cells (10×10^6 in a 1:1 Matrigel® mix, 0.2 mL total volume) are implanted by subcutaneous injection in hind leg of nude female mice (Harlan Laboratories). A total of 5 mice each group are used for efficacy study, and a total of 3-4 mice each group are used for target engagement and PD study. Treatment is initiated with oral administration (gavage) of a test compound or vehicle (20% Captisol®, 25 mM phosphate, pH 2.0 in 0.2 mL volume when the tumor size reaches approximately […]. Tumor growth and body weight are monitored over time to evaluate efficacy and signs of toxicity. Bidimensional measurements of tumors are performed twice a week and tumor volumes are calculated based on mid-axis length and mid-axis width. Tumor volume data are transformed to a log scale to equalize variance across time and treatment groups. The log volume data are analyzed with a two-way repeated measures analysis of variance by time and treatment using the mixed procedures in SAS software (version 8.2). The correlation model for the repeated measures is spatial power. Treated groups are compared to the control group at each time point. The mixed procedure is also used separately for each treatment group to calculate adjusted means and standard errors at each time point. Both analyses account for the autocorrelation within each animal. The adjusted means and standard errors are plotted for each treatment group versus time.
For in vivo target inhibition and PD analysis, tumors are ground by mortar and pestle on dry ice and tumor fragments are added to 800 μL of lysis buffer containing 1% Triton X100, 25 mM Tris pH 7.5, 150 mM NaCl, 1 mM EDTA, and 1 mM EGTA with Halt protease and phosphatase inhibitor cocktail (Thermo Scientific, cat. no. 1861281) in lysing matrix D tubes (MP Biomedical®, cat. no. 6913-500) with one additional large bead (MP Biomedical® ¼″ ceramic sphere bead cat. no. 6540-412) per tube. Tumor fragments are homogenized in a Thermo Bio101® fast prep (FP120) at setting 4 for […] while cold for a total of 2 times. Lysates are spun at 14,000 rpm for 10 min at 4° C. to clarify. Protein estimation is done on the lysate supernatant using a BioRad Dc® protein assay and lysates are diluted in complete lysis/binding buffer from the Ras GTPase Chemi ELISA Kit® (Active Motif, cat. no. 52097). The active KRas ELISA was performed as follows: Glutathione-coated ELISA wells were incubated with diluted RAF1-GST in complete lysis/binding buffer for 1 hr at 4° C. with gentle agitation. Wells are washed 3 times with wash buffer and 100 μg of lysates are added to each well and incubated at RT for 1 hr with mild agitation. The wells are washed an additional 3 times, then primary antibody, diluted in antibody binding buffer, is added to each well. The plates are incubated for 1 hr. The wells are washed 3 more times before adding HRP-conjugated secondary antibody, diluted in antibody binding buffer, to each well. The plates are incubated at RT for 1 hr. ELISA wells are washed 4 times, chemiluminescent reagents is added and then luminescence is read. For pERK Meso Scale Discovery ELISA, 25 μg of protein containing 0.1% SDS is used; for pMEK Meso Scale Discovery ELISA, 50 μg of protein without SDS is used. Meso Scale Discovery Whole Cell Lysate Kits for pERK and pMEK are provided by Meso Scale Discovery.
The tumor samples are collected 4 hr post a single dose. The tumor lysates are prepared and the inhibition of pERK, pMEK, and active KRas is measured as described above.
After a single dose, the tumor samples are harvested at 2, 4, 8, 12 and 24 hr post doing. The tumor lysates are prepared and the inhibition of pERK, pMEK, and active KRas is measured as described above.

HCC-44 = test: CellTiterGlo Cell Proliferation Assay, HCC-44; format: cell-based; conditions: Homo sapiens, HCC44, KRas G12C, Lung, 96 hr, read-out: IC50 (μM) in 2 D cell proliferation
Protocol: as §1, §2

MiaPaca-2 xenograft = test: Anti-tumor growth activity, MiaPaca-2 pancreatic xenograft; format: in vivo; conditions: for Tumor Growth Inhibition (%) or Regression (−%): 28 Day, negative = regression
D122-96 = test: CellTiterGlo Cell Proliferation Assay, D122-96; format: cell-based; conditions: KRas G12C, Lung (mouse), 96 hr
Protocol: as §1, §2

HCC827 = test: CellTiterGlo Cell Proliferation Assay, HCC827; format: cell-based; conditions: Homo sapiens, KRas wild type, lung, 96 hr
Protocol: as §1, §2

[2] = read-out: IC50 (μM) in 2 D cell proliferation
[3] = read-out: IC50 (μM) in 3 D spheroid cell proliferation
[4] = NCI-H358, mouse, 4 hr post dose, read-out: % Inhibition Active KRas
[5] = NCI-H358, mouse, time course, 2 hr, read-out: % Inhibition Active KRas
[6] = NCI-H358, mouse, time course, 4 hr, read-out: % Inhibition Active KRas
[7] = NCI-H358, mouse, time course, 8 hr, read-out: % Inhibition Active KRas
[8] = NCI-H358, mouse, time course, 12 hr, read-out: % Inhibition Active KRas
[9] = NCI-H358, mouse, time course, 24 hr, read-out: % Inhibition Active KRas

T1 sequence (P01116 1-188 isoform P01116-2 G12C): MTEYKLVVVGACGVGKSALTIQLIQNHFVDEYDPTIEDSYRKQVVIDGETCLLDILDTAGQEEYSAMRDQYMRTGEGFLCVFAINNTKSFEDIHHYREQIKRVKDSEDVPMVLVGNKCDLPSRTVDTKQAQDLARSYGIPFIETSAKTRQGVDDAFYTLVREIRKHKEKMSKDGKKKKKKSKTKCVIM

IC50 (H2030; [2]): 6.88 µM | IC50 (H2030; [3]): 0.003 µM | IC50 (SW1463): 0.013 µM | inhibition at 1 mg/kg ([1]; NCI-H358, mouse, 1 mg/kg single dose, 4 hr post dose): -1.9% | inhibition at 3 mg/kg ([1]; NCI-H358, mouse, 3 mg/kg single dose, 4 hr post dose): -2.9% | inhibition at 10 mg/kg [1, 4]: 40.9% | inhibition at 10 mg/kg ([1]; NCI-H358, mouse, from 2-24 hr, read-out: active Kras inhibition): 21 to 61% | inhibition at 30 mg/kg [1, 4]: 83.2% | inhibition at 30 mg/kg ([1]; NCI-H358, mouse, from 2-24 hr, read-out: active KRas inhibition): 29 to 70% | inhibition at 100 mg/kg ([1]; NCI-H358, mouse, 100 mg/kg single dose, 4 hr post dose): 87.4% | inhibition at 10 mg/kg [1, 5]: 26.1% | inhibition at 10 mg/kg [1, 6]: 32.9% | inhibition at 10 mg/kg [1, 7]: 30% | inhibition at 10 mg/kg [1, 8]: 61.1% | inhibition at 10 mg/kg [1, 9]: 21.5% | inhibition at 30 mg/kg [1, 5]: 70.4% | inhibition at 30 mg/kg [1, 6]: 65% | inhibition at 30 mg/kg [1, 7]: 66.5% | inhibition at 30 mg/kg [1, 8]: 28.7% | inhibition at 30 mg/kg [1, 9]: 37.7% | EC50 ([1]; plasma exposure by mass spectrum, read-out: plasma concentration to achieve 50% target inhibition (TEC50), active KRas): 574 nM | dose to achieve 50% target inhibition (TED50), active KRas ([1]; single dose, 4 hr): 11.2 mg/kg | IC50 (HCC-44): 0.221 µM | IC50 (HCC827; [2]): 18.9 µM | IC50 (HCC827; [3]): 4.63 µM
SMILES: C=CC(=O)N1CCN(c2ncnc3c(F)c(-c4ccc(F)c5sc(N)nc45)c(Cl)cc23)CC1 [Example 1, 1-{4-[7-(2-Amino-7-fluoro-1,3-benzothiazol-4-yl)-6-chloro-8-fluoroquinazolin-4-yl]piperazin-1-yl}prop-2-en-1-one]
Tumor Growth Inhibition (%) or Regression (−%) (MiaPaca-2 xenograft; 10 mg/kg BID): 75.48% | Tumor Growth Inhibition (%) or Regression (−%) (MiaPaca-2 xenograft; 10 mg/kg QD): 44.4% | Tumor Growth Inhibition (%) or Regression (−%) (MiaPaca-2 xenograft; 30 mg/kg BID): −49.6% | Tumor Growth Inhibition (%) or Regression (−%) (MiaPaca-2 xenograft; 30 mg/kg QD): 95.6% | In Vivo Anti-Tumor Activities (MiaPaca-2 xenograft; Example 1 30 mg/kg QDx28): 91.22 | IC50 (D122-96; [2]): 0.126 µM | IC50 (D122-96; [3]): 0.069 µM
